According to patent US20230372337A1, “Combination Therapy Comprising an AXL Inhibitor” (BERGENBIO ASA, priority 2020, published 2023):
Several values for one entry are separate records, joined by “and”; a condition that tells them apart may be missing. Identical values can stand only once. Like-named read-outs stand apart in the source and are kept apart here.

Tests used:
[1] = test system: type I IFN related genes (ISG); assay: RT2 Profiler PCR Array Mouse Type I Interferon Response on 4T1 tumors (Example 2); format: in vivo, Balb/c mice
Text: Bemcentinib was given as a loading dose for 3 days (11-13 after tumor implantation) and then as a standard dose until sacrifice.
9 mice have been excluded of the study because of the absence of tumor on day 11. On day 11 post implantation half of the cages were placed in the bemcentinib treated group and the other half in the […]. The average tumor volume when bemcentinib treatment was initiated (day 11) was 54.99 mm^3. […] The tumor volumes when bemcentinib treatment was initiated and the day of randomization are recorded in table 8. The intra tumomoral injection of doxorubicin and sting agonists was adjusted to the tumor volume.
Doxorubicin is provided in a 2 mg/ml solution. As it is technically challenging to inject 50 ul liquid into tumors measuring <100 mm^3, the total dosing volume was calculated based on the following formula: V=50 ul×(TV/120). This is done to minimize variability due to leakage during intratumoral injection. For the 1 mg/kg dose (E,F) Doxorubicin was given at a concentration of 0.5 mg/ml, which corresponds to 1 mg/kg for a 25 g mouse with a tumor of 120 mm^3, and 1 mg/kg for a 20 g mouse with a tumor of 100 mm^3. For 3 mg/kg dose (G,H), a solution of 1.5 mg/ml was used and same volumes was injected. For the 6 mg/kg dose (I,J) the commercial solution of 2 mg/ml will be used and 75 ul was injected for tumor with a volume of 120 mm^3.
The same formula as for doxorubicin was used V=50 ul×(TV/120).
RNA was extracted from […] snap frozen tumors using the RNEasy Microarray Tissue Mini kit from Qiagen following the manufacturer's instructions. As tumors contained Doxorubicin and powderizing them could expose personnel to harmful substances, the RNA was extracted in a closed system using the GentleMACS dissociator and M Tubes. Purity and concentration of RNA was measured using Nanodrop. cDNA was synthesized from RNA using the RT^2 First Strand kit (Qiagen) according to the manufacturer's instructions. cDNA was mixed with RT^2 SYBR Green Mastermix (Qiagen) and loaded into RT Profiler™ PCR Array Mouse Type I Interferon Response or RT^2 Profiler™ PCR Array Mouse Epithelial to Mesenchymal Transition (EMT), analyzing the expression of 84 genes listed in Tables 9 and 10. The plates were analyzed using Light Cycler 480 (Roche) and data were analyzed using the Qiagen Data Analysis Centre and Graph Pad (Prism).
Quiagen RT^2 software was used to analyze all the samples from different groups. To be able to generate heatmaps and graph on fold change including error bars, the data have been analyzed manually with Graph Pad (Prism) when the Quiagen RT^2 software gave significant results between the different groups. For IFN type 1 response 1 mg/kg 48, 72 h and 3 mg/kg 48 h, were analyzed manually. For EMT, 1 mg/kg 48, 72 h, 3 mg/kg 72 h. When the data have been analyzed manually, the results are presented as histograms of mRNA fold changes. For the time points and doses analyzed by the software, the results are presented as tables.
GraphPadPrism was used to generate the heat maps, graphs with mRNA fold change, and to make the statistics. Multiple TTests, paired were performed on ΔΔ Ct values.
The expression of type I IFN related genes (ISG) was assessed in tumors collected 24, 48 and 72 hours after i.t. doxorubicin treatment. 3 groups were compared per timepoint: bemcentinib (bern), doxorubicin only (dox) and doxorubicin combined with bemcentinib (doxbern), the fold changes were compared with the control groups injected with PBS, and the fold change was 1 for the control groups.

4T1 cells [2] = assay: RNA sequencing of 4T1 cells in vitro (Example 4); format: cell-based, mouse; conditions: without supplemental Gas6
[3] = test system: 4T1 mammary carcinoma cells; assay: Metastasis, tumor weight and spleen weight post sacrifice, 4T1 model (Example 1); format: in vivo, BALB/c mice; conditions: for Lung macro metastasis: count per animal (A1-A15) after sacrifice, 10+ = massive lung metastasis; for Average spleen weight / Average tumor weight: post sacrifice, average of each group
Protocol: Spleens were weighed and inspected for macroscopic metastasis and cut in half along the long axis. Half of the spleen was snap frozen, with the other half fixed in 4% formalin for 24 hours at room temperature and stored in 70% ethanol at 4° C. until embedding in paraffin.
Livers were inspected for macroscopic metastasis and fixed in 4% formalin for 24 hours at room temperature and stored in 70% ethanol at 4° C. until embedding in paraffin.
Lungs were inspected for macroscopic metastasis and fixed in 4% formalin for 24 hours at room temperature and stored in 70% ethanol at 4° C. until embedding in paraffin.
Tumors were weighed and cut in half along the long axis, one half was snap frozen in liquid nitrogen in 2 cryotubes per tumor, while the other half was fixed in 4% formalin for 24 hours at room temperature and stored in 70% ethanol at 4° C. until embedding in paraffin.

43 mouse cytokines = assay: Plasma cytokines, ProcartaPlex Multiplex Immunoassay (Luminex) (Example 2); format: in vivo, Balb/c mice; conditions: 1 mg/kg doxorubicin i.t., 72 h post injection, 43 measured
Protocol: The manufacturer user guide was followed. The samples were analyzed by (MAGPIX) and the results were obtained as concentration in pg/ml of mouse plasma. At least 3 samples per group, 4 for many, were analyzed.

4T1 cells [4] = assay: qRTPCR of IFN related genes in 4T1 cells in vitro (Example 4); format: cell-based, mouse; conditions: doxorubicin, 42 ISG measured
[5] = mouse, in vivo
Text: Animals were weighed prior to tumor cell injection, prior to daily dosing and prior to euthanasia.

LL2 cells = assay: Resazurin viability assay of LL2 cells (Example 4); format: cell-based, mouse
Protocol: 4T1 cells (ATCC, CRL-2539) were cultured in RPMI-1640 (Sigma, Cat. #R8758) supplemented with 10% fetal bovine serum (FBS), L-glutamine (4 mM), streptomycin (5 μg/ml) and penicillin (5 U/ml). […] Lewis lung carcinoma cells LL/2 (LLC1) (ATCC, CRL-1642™) were cultured in Dulbecco's Modified Eagle's Medium ATCC® 30-2002™ (4 mM L-glutamine, 4500 mg/L glucose, 1 mM sodium pyruvate, and 1500 mg/L sodium bicarbonate).
The IC50 of the different drugs were calculated by resazurin viability assay. […] The cells were treated for 48 hours.

[6] = test system: 4T1 mammary carcinoma cells; assay: Tumor growth, 4T1 model (Example 2); set-up: species or system Balb/c mice; conditions: short in vivo study, single i.t. injection day 15
Protocol: Tumor growth was measured with a digital handheld caliper twice weekly from emergence of tumor and until the day of euthanasia

[7] = 24 hours after DMXAA i.t. treatment
[8] = doxorubicin 1 mg/kg i.t., 24 hours after injection, 84 genes

## Nc1nc(Nc2ccc3c(c2)CC[C@@H](N2CCCC2)CC3)nn1-c1cc2c(nn1)-c1ccccc1CCC2 [Bemcentinib, bemcentinib]
[1]; [7]
  Fold change of upregulated ISG: around 2 fold
  ISG significantly upregulated compared to control (number): 3
[1]; [8]
  ISG significantly upregulated compared to control (number): no ISG
[1]; doxorubicin 1 mg/kg i.t., 48 h
  ISG significantly upregulated compared to control (number): none
[1]; doxorubicin 3 mg/kg i.t., 48 h
  ISG significantly upregulated compared to control (number): No
4T1 cells [2]
  IFN related gene expression by RNA sequencing: limited IFN type I response
[3]; listed as Bem + PBS + Igg
  Lung macro metastasis: 6 and 10+ (2×) and 5 (3×) and 0 and 4 and 2 and 10
[3]
  Average spleen weight: 0.9333 g
  Average tumor weight: 1.556 g
43 mouse cytokines
  Cytokines with a significant decrease of concentration (number): 4

## COc1cccc2c1C(=O)c1c(O)c3c(c(O)c1C2=O)C[C@@](O)(C(=O)CO)C[C@@H]3O[C@H]1C[C@H](N)[C@H](O)[C@H](C)O1 [Doxorubicin, doxorubicin]
[1]; [8]
  ISG significantly upregulated compared to control (number): no ISG
[1]; doxorubicin 1 mg/kg i.t., 48 h
  Fold change of one upregulated ISG: 3 fold
  ISG significantly upregulated compared to control (number): one
[1]; doxorubicin 3 mg/kg i.t., 24 h
  ISG significantly upregulated compared to control (number): one
[1]; doxorubicin 3 mg/kg i.t., 48 h
  ISG significantly upregulated compared to control (number): No
[1]; doxorubicin 6 mg/kg i.t., 24 hours
  ISG significantly upregulated compared to control (number): 1
[1]; doxorubicin 6 mg/kg i.t., 48 hours
  ISG significantly upregulated compared to control (number): 8
[1]; doxorubicin 6 mg/kg i.t., 72 hours
  ISG significantly upregulated compared to control (number): 6
[3]; listed as Vehicle + Dox + Igg
  Lung macro metastasis: 10+ (2×) and 6 and 3 and 0 (2×) and 4 (2×) and 5
[3]
  Average spleen weight: 1.16 g
  Average tumor weight: 1.51 g
4T1 cells [4]
  ISG with significant mRNA fold change upregulation compared to control (number): 9
[5]
  Effect on the body weight of mice: limited effect
LL2 cells; Mus musculus, LL/2, read-out: IC50 without bem
  IC50: 0.178 µM
LL2 cells; in the presence of bemcentinib, read-out: IC50 with bem
  IC50: 0.0703 µM
[6]
  Tumor growth: no effect
